Like-named read-outs stand apart in the source and are kept apart here.
What was measured:
[1] = tested on: Rat OPCs; conditions: ● = hit reported; cited from earlier work
[2] = tested on: acutely dissociated and purified rat OPCs; test: Acute OL differentiation assay (MBP expression/cell, immunofluorescent image quantification); assay type: cell-based; conditions: for activation at 0.08 µM / activation at 0.4 µM / activation at 2 µM / activation at 10 µM / EC50: Rattus norvegicus; for activation at 0.08 µM: test compound at 0.08 uM, read-out: 0.08 uM (% Quet); for activation at 0.08 µM / activation at 0.4 µM / activation at 2 µM / activation at 10 µM / 2 uM (% Quet) / 10 uM (% Quet): sheet "All OLga data"; for hit in OL differentiation assay, MRF-TMC: ● = confirmed hit in this paper's assay; for EC50: average EC50 for induction of OL differentiation from independent biological replicates, eight concentrations
Outline: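 This acute differentiation assay used purified rat OPCs from postnatal day 6–7 pups, seeded into PDL/laminin-coated 96-well plates in differentiation medium lacking PDGF and FGF. Compounds were applied in quadruplicate after a 1–2 h preincubation at 37 °C, 10 % CO2, with 0.1 % DMSO negative and 40 ng/ml T3 positive controls in eight wells. After fixation on DIV4, anti-MBP immunofluorescence images yielded MBP expression/cell.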

[3] = tested on: expanded OPCs; test: cells; conditions: for viability at 0.1 µM / viability at 1 µM / viability at 10 µM: Rattus norvegicus, 72 h
Outline: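 Toxicity screen: compounds added at 0.1, 1 and 10 µM to PDGF-AA-expanded OPCs in 96-well plates, 3-day incubation at 37 °C, 10% CO2, then alamarBlue 1:10 for 4 h with fluorescence readout. Results set screening doses of 10/2, 2/0.4 or 0.4/0.08 µM.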

[4] = tested on: Rat OPCs, Mouse OPCs; conditions: ● = hit reported; cited from earlier work
[5] = NCC library screen, relative to quetiapine
[6] = test compound at 0.4 uM, NCC library screen, relative to quetiapine, read-out: 0.4 uM (% Quet)
[7] = read-out: 0.1 µM (% DMSO), alamarBlue viability, NCC library compound at 0.1 µM, sheet "All Tox data"
[8] = read-out: 1 µM (% DMSO), alamarBlue viability, NCC library compound at 1 µM, sheet "All Tox data"
[9] = read-out: 10 µM (% DMSO), alamarBlue viability, NCC library compound at 10 µM, sheet "All Tox data"
[10] = test compound at 2 uM, NCC library screen, relative to quetiapine, read-out: 2 uM (% Quet)
[11] = test compound at 10 uM, NCC library screen, relative to quetiapine, read-out: 10 uM (% Quet)
[12] = alamarBlue viability of expanded OPCs, compound at 0.1 µM, relative to DMSO control
[13] = alamarBlue viability of expanded OPCs, compound at 1 µM, relative to DMSO control
[14] = alamarBlue viability of expanded OPCs, compound at 10 µM, relative to DMSO control
[15] = 0.4 uM test compound, relative to quetiapine, read-out: OL differentiation, 0.4 uM (% Quet)
[16] = 2 uM test compound, relative to quetiapine, read-out: OL differentiation, 2 uM (% Quet)
[17] = read-out: 0.1 µM (% DMSO), alamarBlue viability of expanded OPCs, compound at 0.1 µM, sheet All Tox data
[18] = read-out: 1 µM (% DMSO), alamarBlue viability of expanded OPCs, compound at 1 µM, sheet All Tox data
[19] = read-out: 10 µM (% DMSO), alamarBlue viability of expanded OPCs, compound at 10 µM, sheet All Tox data
[20] = test compound at 2 uM, MBP expression relative to quetiapine, NCC library screen, read-out: 2 uM (% Quet)
[21] = test compound at 10 uM, MBP expression relative to quetiapine, NCC library screen, read-out: 10 uM (% Quet)
[22] = 10 uM test compound, relative to quetiapine, read-out: OL differentiation, 10 uM (% Quet)
[23] = test compound at 2 uM, NCC library screen, relative to quetiapine
[24] = test compound at 10 uM, NCC library screen, relative to quetiapine
[25] = alamarBlue viability, NCC library compound at 0.1 µM, sheet "All Tox data"
[26] = alamarBlue viability, NCC library compound at 1 µM, sheet "All Tox data"
[27] = alamarBlue viability, NCC library compound at 10 µM, sheet "All Tox data"

Compound: OCCN1CCN(CCCN2c3ccccc3Sc3ccc(C(F)(F)F)cc32)CC1 [Fluphenazine, reference compound]
- hit in OL differentiation assay, Deshmukh [1]: ●
- activation at 0.08 µM [2, 5]: 92.6%
- activation at 0.4 µM [2, 6]: -2.7%
- hit in OL differentiation assay, MRF-TMC [2]: ●
- viability at 0.1 µM [3, 7]: 159%
- viability at 1 µM [3, 8]: 46.8%
- viability at 10 µM [3, 9]: 9.6%

Compound: CC(C)[N+]1(C)[C@@H]2CC[C@H]1C[C@@H](OC(=O)C(CO)c1ccccc1)C2 (some centres unmarked) [Ipatropium, reference compound]
- hit in OL differentiation assay, Deshmukh [1]: ●
- hit in OL differentiation assay, Mei [4]: ●
- activation at 2 µM [2, 10]: 21.2%
- activation at 10 µM [2, 11]: 38.6%
- EC50 [2]: 8500 nM
- hit in OL differentiation assay, MRF-TMC [2]: ●
- viability at 0.1 µM [3, 7]: 92.6%
- viability at 1 µM [3, 8]: 101%
- viability at 10 µM [3, 9]: 123%

Compound: CCN(CC)CC#CCOC(=O)C(O)(c1ccccc1)C1CCCCC1 (centres unmarked) [Oxybutynin, reference compound]
- hit in OL differentiation assay, Deshmukh [1]: ●
- hit in OL differentiation assay, Mei [4]: ●
- activation at 2 µM [2, 10]: 91.6%
- hit in OL differentiation assay, MRF-TMC [2]: ●
- 0.1 µM (% DMSO) [3, 12]: 129.9 % DMSO
- 1 µM (% DMSO) [3, 13]: 169.5 % DMSO
- 10 µM (% DMSO) [3, 14]: 57.5 % DMSO

Compound: OCCN1CCN(CCCN2c3ccccc3Sc3ccc(Cl)cc32)CC1 [Perphenazine, reference compound]
- hit in OL differentiation assay, Deshmukh [1]: ●
- activation at 0.08 µM [2, 5]: 95.7%
- activation at 0.4 µM [2, 6]: 79%
- EC50 [2]: 100 nM
- hit in OL differentiation assay, MRF-TMC [2]: ●
- 0.1 µM (% DMSO) [3, 12]: 154.3 % DMSO
- 1 µM (% DMSO) [3, 13]: 47.1 % DMSO
- 10 µM (% DMSO) [3, 14]: 9.2 % DMSO

Compound: OCc1cc(C(O)CNCCCCCCOCCCCc2ccccc2)ccc1O (centres unmarked) [Salmeterol, reference compound]
- hit in OL differentiation assay, Deshmukh [1]: ●
- activation at 0.4 µM [2, 6]: 55.3%
- activation at 2 µM [2, 10]: -32.4%
- EC50 [2]: 400 nM
- hit in OL differentiation assay, MRF-TMC [2]: ●
- viability at 0.1 µM [3, 7]: 115%
- viability at 1 µM [3, 8]: 108%
- viability at 10 µM [3, 9]: 9.3%

Compound: CN1CCN(CCCN2c3ccccc3Sc3ccc(C(F)(F)F)cc32)CC1 [Trifluoperazine, reference compound]
- hit in OL differentiation assay, Deshmukh [1]: ●
- activation at 0.4 µM [2, 15]: 155%
- activation at 2 µM [2, 16]: -103%
- EC50 [2]: 200 nM
- hit in OL differentiation assay, MRF-TMC [2]: ●
- viability at 0.1 µM [3, 17]: 116%
- viability at 1 µM [3, 18]: 85.8%
- viability at 10 µM [3, 19]: 11.3%

Compound: Cc1cn([C@H]2C[C@H](N=[N+]=[N-])[C@@H](CO)O2)c(=O)[nH]c1=O [Zidovudine]
- activation at 2 µM [2, 20]: -29.4%
- activation at 10 µM [2, 21]: -41.2%
- 0.1 µM (% DMSO) [3, 12]: 89.6 % DMSO
- 1 µM (% DMSO) [3, 13]: 85.7 % DMSO
- 10 µM (% DMSO) [3, 14]: 83.9 % DMSO

Compound: CC(c1cc2ccccc2s1)N(O)C(N)=O (centres unmarked) [Zileuton]
- activation at 2 µM [2, 16]: -2.6%
- activation at 10 µM [2, 22]: -52.1%
- viability at 0.1 µM [3, 17]: 104%
- viability at 1 µM [3, 18]: 89.4%
- viability at 10 µM [3, 19]: 77.4%

Compound: CN(C)CCc1c[nH]c2ccc(C[C@H]3COC(=O)N3)cc12 [Zolmitriptan]
- activation at 2 µM [2, 10]: 4.1%
- activation at 10 µM [2, 11]: 4.7%
- viability at 0.1 µM [3, 7]: 85.9%
- viability at 1 µM [3, 8]: 89.9%
- viability at 10 µM [3, 9]: 95.5%

Compound: Cc1ccc(-c2nc3ccc(C)cn3c2CC(=O)N(C)C)cc1 [Zolpidem]
- activation at 2 µM [2, 16]: -14%
- activation at 10 µM [2, 22]: -2.7%
- viability at 0.1 µM [3, 17]: 86.9%
- viability at 1 µM [3, 18]: 90.8%
- viability at 10 µM [3, 19]: 93.5%

Compound: NS(=O)(=O)Cc1noc2ccccc12 [Zonisamide]
- activation at 2 µM [2, 20]: 5.9%
- activation at 10 µM [2, 21]: 4.3%
- 0.1 µM (% DMSO) [3, 12]: 89.3 % DMSO
- 1 µM (% DMSO) [3, 13]: 92.8 % DMSO
- 10 µM (% DMSO) [3, 14]: 87.8 % DMSO

Compound: COc1cc(CNC(=O)CCCC/C=C\C(C)C)ccc1O [Zucapsaicin]
- activation at 0.4 µM [2, 15]: 13.2%
- activation at 2 µM [2, 16]: -17%
- viability at 0.1 µM [3, 17]: 85.6%
- viability at 1 µM [3, 18]: 72%
- viability at 10 µM [3, 19]: 36.9%

Compound: N#Cc1ccc(C(c2ccc(C#N)cc2)n2cncn2)cc1 [letrozole]
- activation at 2 µM [2, 16]: 1.2%
- activation at 10 µM [2, 22]: -4.8%
- viability at 0.1 µM [3, 17]: 92%
- viability at 1 µM [3, 18]: 99.2%
- viability at 10 µM [3, 19]: 101%

Compound: CC(=O)NC[C@H]1CN(c2ccc(N3CCOCC3)c(F)c2)C(=O)O1 [linezolid]
- activation at 2 µM [2, 16]: 4.3%
- activation at 10 µM [2, 22]: 7.1%
- viability at 0.1 µM [3, 7]: 95.7%
- viability at 1 µM [3, 8]: 94.1%
- viability at 10 µM [3, 9]: 94.7%

Compound: CC(Oc1c(Cl)cccc1Cl)C1=NCCN1 (centres unmarked) [lofexidine]
- activation at 2 µM [2, 10]: 9.5%
- activation at 10 µM [2, 11]: 13.1%
- viability at 0.1 µM [3, 7]: 88.5%
- viability at 1 µM [3, 8]: 96%
- viability at 10 µM [3, 9]: 80.6%

Compound: CC(C(=O)O)c1ccc(CC2CCCC2=O)cc1 (centres unmarked) [loxoprofen]
- activation at 2 µM [2, 16]: 3.1%
- activation at 10 µM [2, 22]: 10.9%
- viability at 0.1 µM [3, 7]: 99.8%
- viability at 1 µM [3, 8]: 92.5%
- viability at 10 µM [3, 9]: 87.6%

Compound: NC(Cc1cc(I)c(Oc2cc(I)c(O)c(I)c2)c(I)c1)C(=O)O (centres unmarked) [thyroxine, reference compound]
- promotion of OL differentiation (in words) ([2]; MBP expression versus 0.1 % DMSO negative control): able to promote OL differentiation at one or both concentrations tested
- activation at 2 µM [2, 10]: -26.7%
- activation at 10 µM [2, 11]: -186%
- 0.1 µM (% DMSO) [3, 12]: 212.0 % DMSO
- 1 µM (% DMSO) [3, 13]: 190.0 % DMSO
- 10 µM (% DMSO) [3, 14]: 120.0 % DMSO

Compound: HTMT
- 2 uM (% Quet) [2, 23]: -16.4 % Quet
- 10 uM (% Quet) [2, 24]: 21.8 % Quet
- 0.1 µM (% DMSO) [3, 25]: 71.6 % DMSO
- 1 µM (% DMSO) [3, 26]: 71.0 % DMSO
- 10 µM (% DMSO) [3, 27]: 63.6 % DMSO

Compound: Methanesulfonamide
- 2 uM (% Quet) [2, 23]: -6.5 % Quet
- 10 uM (% Quet) [2, 24]: 5.8 % Quet
- 0.1 µM (% DMSO) [3, 25]: 118.1 % DMSO
- 1 µM (% DMSO) [3, 26]: 132.7 % DMSO
- 10 µM (% DMSO) [3, 27]: 132.9 % DMSO

From article PMC5011342, “A high throughput drug screening assay to identify compounds that promote oligodendrocyte differentiation using acutely dissociated and purified oligodendrocyte precursor cells” (BMC Research Notes, 2016)
